Measurements: US20250161297A1, “COMPOSITIONS AND METHODS FOR INHIBITING FSP1” (THE REGENTS OF THE UNIVERSITY OF CALIFORNIA, priority 2022, published 2025)
Entries after “also recorded” stand apart in the source; their conditions may differ. Residues, ends and D or L forms follow the SMILES beside them. *: point of attachment. Cbz = O=C(OCc1ccccc1)*; CH2F = FC*

Assays:
[1] = tested on: H460^C cells; test: GPX4 inhibitor-induced cell death with FSEN1 co-treatment; format: cell-based
Procedure: (§1) For cell-based screen, cells were seeded in triplicate at a density of 500-750 cells per 50 μL per well in black 384-well plates (NUNC) and (Corning) 24 hr before start of imaging. After 24 hr, an additional 50 μL of drug infused medium containing 30 nM SYTOX Green Dead Cell Stain was carefully placed into the wells on top of existing medium. The plates were immediately transferred to an IncuCyte S3 imaging system (Essen Bioscience) enclosed in an incubator set to 37° C. and 5% CO2. One image per well were captured in the phase, green, and red channels every 1.5 or 3 hr over a 24 hr period, and the ratio of SYTOX Green-positive objects (dead cells) to SYTOX Green-positive plus Sg-SAFE mCherry-positive objects (total cells) was quantified using S3 image analysis software (Essen Bioscience). For each treatment condition, the SYTOX-to-′SYTOX+mCherry′-object ratio was plotted against the 24 hr imaging interval, the Area Under the Curve (AUC) was calculated and the average AUC was plotted using Prism (GraphPad). To calculate the half-maximal effective concentration (EC50) values, the AUC curve was fit to a variable slope function comparing response to drug concentration.
(§2) Synergy experiments: For cell-based synergy experiments, cells were seeded at a density of 750 cells per 25 μL per well in four black 384-well plates (Corning) 24 hr before start of imaging. After 24 hr, an additional 25 μL of drug infused medium containing 30 nM SYTOX Green Dead Cell Stain was carefully placed into the wells on top of existing medium. The plates were immediately transferred to an IncuCyte S3 imaging system (Essen Bioscience) enclosed in an incubator set to 37° C. and 5% CO2. One image per well were captured in the phase, green, and red channels every 4 hr over a 24 hr period, and the ratio of SYTOX Green-positive objects (dead cells) to SYTOX Green-positive plus Sg-SAFE mCherry-positive objects (total cells) was quantified using S3 image analysis software (Essen Bioscience). For each treatment condition, the SYTOX-to-′SYTOX+mCherry′-object ratio was plotted against the 24 hr imaging interval, the Area Under the Curve (AUC) was calculated, and the average AUC was plotted as a function of drug concentration (for example, RSL3) using Prism (GraphPad). To calculate the half-maximal effective concentration (EC50) values, the AUC curve was fit to a variable slope function comparing response to drug concentration.

[2] = tested on: panel of cancer cell lines of various tissue origins; test: RSL3-induced cell death in a panel of cancer cell lines; format: cell-based; settings: RSL3 plus FSEN1; 2 μM Fer-1
Procedure: as §1, with “concentration. […]” for “concentration.”

[3] = tested on: H460^C cells; test: DHA- and FINO2-induced cell death with FSEN1 co-treatment; format: cell-based
Procedure: as §1, §2

[4] = tested on: H460^C Cas9 cells; test: cell-based assay, cell death in control cells
Procedure: as §1, with “concentration. […]” for “concentration.”
Employing this assay, the amount of cell death induced by 168 FSP1 inhibitors in the H460^C Cas9 and H460^C GPX4^KO cells was assessed. […]

[5] = tested on: H460^C GPX4^KO cells; test: cell-based assay of FSP1 activity, cell death (SYTOX Green/mCherry lethal fraction)
Procedure: as §1
In addition to the in vitro activity assay, an orthogonal cell-based assay of FSP1 activity was also developed. […]

[6] = target: T1, His tagged FSP1 (WT) protein (Homo sapiens, UniProt Q9BRQ8); test: in vitro FSP1 activity assay (NADH oxidation during CoQ1 reduction, 355 nm absorbance); format: biochemical; settings: inhibition of FSP1 Coenzyme Q1 oxidoreductase activity in vitro
T1 construct: made in house; host or cells: E. coli LOBSTR-BL21 (DE3)
T1 sequence (Q9BRQ8 1-373): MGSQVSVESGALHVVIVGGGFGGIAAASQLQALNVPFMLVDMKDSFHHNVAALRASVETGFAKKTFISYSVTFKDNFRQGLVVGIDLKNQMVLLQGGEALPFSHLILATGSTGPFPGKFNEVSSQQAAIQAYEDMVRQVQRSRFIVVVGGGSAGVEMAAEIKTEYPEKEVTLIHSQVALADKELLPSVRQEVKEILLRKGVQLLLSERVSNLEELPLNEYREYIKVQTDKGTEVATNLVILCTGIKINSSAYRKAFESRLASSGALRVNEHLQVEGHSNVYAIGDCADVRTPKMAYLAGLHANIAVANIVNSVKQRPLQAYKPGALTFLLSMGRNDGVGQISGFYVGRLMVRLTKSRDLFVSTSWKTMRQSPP
Procedure: For small molecule drug screen, 0.5 μL of compounds were stamped into 384 well NBS plates (Corning) in dose response diluted 2-fold with a high of 2 mM. 60 mL of purified His tagged FSP1 (WT) protein at 50 nM was prepared and 12.5 μL of this protein solution was aliquoted into 384 well NBS-plates (Corning) containing compound and allowed to incubate for 30 min at room temperature. After 30 min incubation 12.5 μL of reaction buffer (1 mM NADH, 800 µM CoQ1) was added into the 384 well NBS-plates containing protein and compounds for a final concentration of 25 nM His tagged FSP1 (WT) protein, 500 µM NADH (Sigma-Aldrich) and 400 µM CoQ1 (Sigma-Aldrich). Each well contained a 25 μL mixture and 40 µM compound in the primary screen. […] Measurements were taken at 355 nm with a EnVision 2104 multilabel plate reader (PerkinElmer). […] Compounds with confirmed data that have normalized absorbance values of less than 0.164 were chosen for dose response. […]
To measure NADH oxidation kinetics, 25 nM recombinant FSP1 was combined with 500 µM NADH and C400 µM Coenzyme Q1 in a total volume of 100 μl PBS. The change in absorbance at 355 nm, corresponding to NADH oxidation, was determined over the course of 4 h. All measurements were taken using a SpectraMax i3 Multi-Mode Platform plate reader (Molecular Devices). […]

[7] = tested on: H460^C FSP1^KO cells; test: FDA and Bioactive Library synthetic lethal screen; format: cell-based; settings: 24 h
Procedure: FDA and Bioactive Library Screen: For FDA and Bioactive Library Screen experiments, cells were seeded at a density of 750 cells per 25 uL per well in black 384-well plates (NUNC) and (Corning) 24 hr before start of imaging. After 24 hr, an additional 25 μL of drug infused medium containing 30 nM SYTOX Green Dead Cell Stain was carefully placed into the wells on top of existing medium. The plates were immediately transferred to an IncuCyte S3 imaging system (Essen Bioscience) enclosed in an incubator set to 37° C. and 5% CO2. One image per well were captured in the phase, green, and red channels every 4 hr over a 24 hr period, and the ratio of SYTOX Green-positive objects (dead cells) to SYTOX Green-positive plus SgSAFE mCherry-positive objects (total cells) was quantified using S3 image analysis software (Essen Bioscience). For each treatment condition, the SYTOX-to-‘SYTOX+mCherry’-object ratio was plotted against the 24 hr imaging interval, the Area Under the Curve (AUC) was calculated, and the average AUC was plotted as a function of drug concentration (for example, RSL3) using Prism (GraphPad). To calculate the half-maximal effective concentration (EC50) values, the AUC curve was fit to a variable slope function comparing response to drug concentration. […]

Compound	effect on cell death induced by co-treatment of FSEN1 with RSL3 [1]	effect on cell death induced by DHA and FSEN1 together [3]	further results
CN1C(=O)NC(Cc2c[nH]c3c(Cl)cccc23)C1=O (stereo not drawn) [Nects]	no effect		
CCOC(=O)c1ccc(NC2CCCCC2)c(N)c1 [ferrostatin-1]	blocked	strongly suppressed	effect on cell death by co-treatment [2]: rescued
tocopherol	blocked	strongly suppressed	
Cc1ccc(-c2c(C#N)c(N)n3c(nc4ccccc43)c2C#N)cc1 [iFSP1]			cell death in H460^C Cas9 cells [4]: but not in the H460^C Cas9 cells; cell death in H460^C GPX4^KO cells [5]: sufficient to trigger ferroptosis; also recorded: selectively triggered cell death; IC50 [6]: 4.01 µM
COC(=O)C[C@H](NC(=O)[C@H](C)NC(=O)[C@@H](NC(=O)OCc1ccccc1)C(C)C)C(=O)CF [Z-VAD] (Cbz-Val-Ala-Asp(OMe)-CH2F)	no effect		
C[C@H]1[C@@H](O)O[C@@H]2O[C@@]3(C)CC[C@H]4[C@H](C)CC[C@@H]1[C@@]24OO3 [DHA, dihydroartemisinin]			cytotoxicity in H460^C FSP1^KO cells [7]: selectively induced cell death; EC50 ([3]; DHA and FSEN1 treatment together): 21.3 µM
COC1=C(OC)C(=O)C(CCCCCCCCCCO)=C(C)C1=O [idebenone]	blocked	strongly suppressed	
COC(=O)c1ccc([C@@H]2c3[nH]c4ccccc4c3C[C@@H](C(=O)OC)N2C(=O)CCl)cc1 [RSL3]			cytotoxicity in H460^C FSP1^KO cells [7]: cytotoxic
